Tests used:
Type in all cases: functional
Acinetobacter baumannii [1] = experiment: Antibacterial activity against Acinetobacter baumannii ATCC19606 incubated for 18 to 24 hrs; settings: time 18-24 hrs
Staphylococcus aureus [2] = experiment: Antibacterial activity against Staphylococcus aureus clinical isolate incubated for 18 to 24 hrs; settings: time 18-24 hrs
Bacillus subtilis [3] = experiment: Selectivity ratio of MBC for penicillin-susceptible Bacillus subtilis ATCC9372 to MIC for penicillin-susceptible Bacillus subtilis ATCC9372
Bacillus subtilis [4] = experiment: Antibacterial activity against penicillin-susceptible Bacillus subtilis ATCC9372 incubated for 18 to 24 hrs; settings: time 18-24 hrs
Staphylococcus aureus [5] = experiment: Antibacterial activity against methicillin-resistant Staphylococcus aureus ATCC43300 incubated for 18 to 20 hrs; settings: time 18-20 hrs
Staphylococcus aureus [6] = experiment: Selectivity ratio of MBC for erythromycin-susceptible Staphylococcus aureus ATCC25923 to MIC for erythromycin-susceptible Staphylococcus aureus ATCC25923
Staphylococcus aureus [7] = experiment: Antibacterial activity against erythromycin-susceptible Staphylococcus aureus ATCC25923 incubated for 18 to 24 hrs; settings: time 18-24 hrs
Streptococcus pyogenes [8] = experiment: Antibacterial activity against erythromycin-resistant Streptococcus pyogenes 2 clinical isolate assessed as bacterial growth inhibition incubated for 20 hrs by CLSI based broth microdilution method
[9] = system: Staphylococcus epidermidis; experiment: Antibacterial activity against penicillin-resistant Staphylococcus epidermidis clinical isolate assessed as bacterial growth inhibition incubated for 20 hrs by CLSI based broth microdilution method
Staphylococcus aureus [10] = experiment: Antibacterial activity against Staphylococcus aureus clinical isolate assessed as bacterial growth inhibition incubated for 20 hrs by CLSI based broth microdilution method
Staphylococcus aureus [11] = experiment: Antibacterial activity against penicillin-resistant Staphylococcus aureus ATCC31007 assessed as bacterial growth inhibition incubated for 20 hrs by CLSI based broth microdilution method
Staphylococcus aureus [12] = experiment: Antibacterial activity against methicillin-resistant Staphylococcus aureus ATCC43300 assessed as bacterial growth inhibition incubated for 20 hrs by CLSI based broth microdilution method
Klebsiella pneumoniae = experiment: Antibacterial activity against Klebsiella pneumoniae ATCC BAA-1902 assessed as bacterial growth inhibition incubated for 20 hrs by CLSI based broth microdilution method
Acinetobacter baumannii [13] = experiment: Antibacterial activity against Acinetobacter baumannii ATCC19606 assessed as bacterial growth inhibition incubated for 20 hrs by CLSI based broth microdilution method
Escherichia coli [14] = experiment: Antibacterial activity against wild-type Escherichia coli BW25113 assessed as bacterial growth inhibition incubated for 20 hrs by CLSI based broth microdilution method
Escherichia coli [15] = experiment: Antibacterial activity against penicillin-susceptible Escherichia coli ATCC25922 assessed as bacterial growth inhibition incubated for 20 hrs by CLSI based broth microdilution method
Enterococcus faecium [16] = experiment: Antibacterial activity against vancomycin-susceptible Enterococcus faecium ATCC19434 assessed as bacterial growth inhibition incubated for 20 hrs by CLSI based broth microdilution method
Enterococcus faecalis [17] = experiment: Antibacterial activity against vancomycin-susceptible Enterococcus faecalis ATCC29212 assessed as bacterial growth inhibition incubated for 20 hrs by CLSI based broth microdilution method
Streptococcus pyogenes [18] = experiment: Antibacterial activity against erythromycin-susceptible Streptococcus pyogenes 1 assessed as bacterial growth inhibition incubated for 20 hrs by CLSI based broth microdilution method
Staphylococcus aureus [19] = experiment: Antibacterial activity against erythromycin-susceptible Staphylococcus aureus ATCC25923 assessed as bacterial growth inhibition incubated for 20 hrs by CLSI based broth microdilution method
Bacillus pumilus = experiment: Antibacterial activity against penicillin-susceptible Bacillus pumilus CMCC63202 assessed as bacterial growth inhibition incubated for 20 hrs by CLSI based broth microdilution method
Bacillus subtilis [20] = experiment: Antibacterial activity against penicillin-susceptible Bacillus subtilis ATCC9372 assessed as bacterial growth inhibition incubated for 20 hrs by CLSI based broth microdilution method
Enterococcus faecalis [21] = experiment: Antibacterial activity against vancomycin-resistant Enterococcus faecalis ATCC51299 assessed as bacterial growth inhibition incubated for 20 hrs by CLSI based broth microdilution method
Enterococcus faecium [22] = experiment: Antibacterial activity against vancomycin-resistant Enterococcus faecium ATCC51559 assessed as bacterial growth inhibition incubated for 20 hrs by CLSI based broth microdilution method
Staphylococcus aureus [23] = experiment: Induction of resistance development in Staphylococcus aureus ATCC25923 assessed as fold increase in MIC at 0.5 times MIC measured after 32 days by multi-passage resistance assay relative to control; settings: time 32.0 day

C[n+]1cc2c3c(ccc2c2ccc4cc5c(cc4c21)OCO5)OCO3
MBC (Acinetobacter baumannii [1]): > 64 µg/mL | MBC (Staphylococcus aureus [2]): > 64 µg/mL | Ratio (Bacillus subtilis [3]): 16 | MBC (Bacillus subtilis [4]): 64 µg/mL | MBC (Staphylococcus aureus [5]): > 64 µg/mL | Ratio (Staphylococcus aureus [6]): >32 | MBC (Staphylococcus aureus [7]): > 64 µg/mL | MIC (Streptococcus pyogenes [8]): 2 µg/mL | MIC [9]: 8 µg/mL | MIC (Staphylococcus aureus [10]): 8 µg/mL | MIC (Staphylococcus aureus [11]): 16 µg/mL | MIC (Staphylococcus aureus [12]): 8 µg/mL | MIC (Klebsiella pneumoniae): 64 µg/mL | MIC (Acinetobacter baumannii [13]): 64 µg/mL | MIC (Escherichia coli [14]): 64 µg/mL | MIC (Escherichia coli [15]): 32 µg/mL | MIC (Enterococcus faecium [16]): 64 µg/mL | MIC (Enterococcus faecalis [17]): 16 µg/mL | MIC (Streptococcus pyogenes [18]): 2 µg/mL | MIC (Staphylococcus aureus [19]): 4 µg/mL | MIC (Bacillus pumilus): 4 µg/mL | MIC (Bacillus subtilis [20]): 4 µg/mL | MIC (Enterococcus faecalis [21]): 32 µg/mL | MIC (Enterococcus faecium [22]): 32 µg/mL

CO[C@H]1/C=C/O[C@@]2(C)Oc3c(C)c(O)c4c(O)c(c(/C=N/N5CCN(C)CC5)c(O)c4c3C2=O)NC(=O)/C(C)=C\C=C\[C@H](C)[C@H](O)[C@@H](C)[C@@H](O)[C@@H](C)[C@H](OC(C)=O)[C@@H]1C
fold change (FC) (Staphylococcus aureus [23]): 8192

— ChEMBL document CHEMBL5537115, “New broad-spectrum and potent antibacterial agents with dual-targeting mechanism: Promoting FtsZ polymerization and disrupting bacterial membranes” (Eur J Med Chem, 2024)
